Source: publication PMC5321434, “Dihydrobenz[e][1,4]oxazepin-2(3H)-ones, a new anthelmintic chemotype immobilising whipworm and reducing infectivity in vivo” (PLoS Neglected Tropical Diseases, 2017)

Tested on: adult T. muris
Assay: Ex vivo adult T. muris automated motility assay (primary/secondary screen at 100 μM and dose-response)
Set-up: species or system Trichuris muris
Conditions: for PRIMARY_SCREEN_MINUS_LOG_FOLD_CHANGE_MOVEMENT: primary screen; for PRIMARY_SCREEN_MINUS_LOG_FOLD_CHANGE_MOVEMENT / SECONDARY_SCREEN_MINUS_LOG_FOLD_CHANGE_MOVEMENT: adult T. muris motility; for SECONDARY_SCREEN_MINUS_LOG_FOLD_CHANGE_MOVEMENT: secondary screen
Experimental: Severe combined immune deficiency (SCID) mice were bred in the Biological Services Facility at the University of Manchester. Both male and female SCID mice were infected with a high dose of 200 infective embryonated T. muris eggs via oral gavage. At day 35 post-infection, groups of 5 mice were killed and their […] colons removed. Guts were opened longitudinally, washed with pre-warmed Roswell Park Memorial Institute (RPMI) 1640 media supplemented with penicillin (500U/ml) and streptomycin (500μg/ml) and adult T. muris worms gently removed using fine forceps. Worms removed from SCID mice were maintained in RPMI-1640 media supplemented with penicillin (500U/ml) and streptomycin (500μg/ml) at approximately 37°C and studied on the same day. Using fine forceps, individual live worms were placed into 96 well plates containing 75μl of RPMI-1640 medium supplemented with penicillin (500U/ml) and streptomycin (500μg/ml) plus 1% final concentration of DMSO or compound dissolved in DMSO. In the primary screen the test compound concentration was 100μM. Plates were then incubated at 37°C, 5% CO2, and motility was analysed after 24 hours. Worm movement was quantified using an automated motility assay. This system gives an estimate of worm movement in each well by thresholding and quantifying pixel intensity variance over time. An earlier version of this system has been previously described. One adult T. muris worm was used per well, with one well per compound in each replicate of the primary screen. The primary screen was repeated each week for a period of four weeks giving four independent biological replicates from separate parasite batches for each compound. Dose-response curves were calculated with the four factor log-logistic model using the R package drc. The primary screen was carried out at 100μM final concentration. Assay plates were assigned unique IDs and statistical analysis was performed without knowledge of compound identities using R scripts. Once hit wells were identified, well/plate positions were mapped to compound identities using DataWarrior [28]. […] Compounds identified as having encouraging activity from the DMSO solution samples were then resynthesized for confirmatory testing.

[1] = combined primary and secondary screen minus log fold change in movement, adult T. muris, 100 μM

Compound | COMBINED_SCREEN_ACTIVITY [1] | PRIMARY_SCREEN_MINUS_LOG_FOLD_CHANGE_MOVEMENT (100 μM) | COMBINED_SCREEN_ACTIVITY (adult T. muris motility screen at 100 μM, combines primary and secondary screen minus log fold change in movement (mean where both are given)) | SECONDARY_SCREEN_MINUS_LOG_FOLD_CHANGE_MOVEMENT (100 μM)
COc1ccc(F)cc1-c1ccc2c(c1)COCC(=O)N2CCc1ccccc1 [Compound 145] | -1.739 | -1.739 | – | –
COc1cc(F)ccc1-c1ccc2c(c1)COCC(=O)N2CCN1CCOCC1 [Compound 161] | -1.617 | -1.617 | – | –
CC(=O)Nc1cccc(-c2ccc3c(c2)N(Cc2ccccc2)C(=O)COC3)c1 [Compound 137] | 5.935 | 5.935 | – | –
COc1cccc(CN2C(=O)COCc3cc(-c4cccc(O)c4)ccc32)c1 [Compound 126] | 1.18 | 1.18 | – | –
CCCN1C(=O)COCc2ccc(Br)cc21 [Compound 18] | -1.618 | -1.618 | – | –
Cn1cc(-c2ccc3c(c2)N(CC2CCCCC2)C(=O)COC3)cn1 [Compound 68] | -0.9119 | -0.9119 | – | –
COCCN1C(=O)COCc2ccc(-c3cccc(F)c3)cc21 [Compound 38] | -1.255 | -1.255 | – | –
Cc1ccc(-c2ccc3c(c2)N(CCN2CCOCC2)C(=O)COC3)cc1C [Compound 134] | -2.044 | -2.044 | – | –
O=C1COCc2cc(-c3cccc(CO)c3)ccc2N1Cc1cc(F)cc(F)c1 [Compound 154] | -1.197 | -1.197 | – | –
CN1C(=O)COCc2cc(Br)ccc21 [Compound 6] | -1.038 | -1.038 | – | –
O=C1COCc2ccc(-c3cccc(F)c3)cc2N1CC1CC1 [Compound 35] | 10.5493 | 10.5493 | – | –
COCc1cccc(-c2ccc3c(c2)N(CC2CC2)C(=O)COC3)c1 [Compound 63] | -1.629 | -1.629 | – | –
COc1ccc(F)cc1-c1ccc2c(c1)N(CCc1ccccc1)C(=O)COC2 [Compound 147] | 0.4002 | 0.4002 | – | –
CC(C)N1C(=O)COCc2ccc(-c3ccccc3)cc21 [Compound 12] | 1.691 | 1.691 | – | –
COc1ccc(F)cc1-c1ccc2c(c1)N(CCN1CCOCC1)C(=O)COC2 [Compound 162] | -1.305 | -1.305 | – | –
CC(C)N1C(=O)COCc2ccc(Br)cc21 [Compound 19] | -1.507 | -1.507 | – | –
O=C1COCc2ccc(-c3cc(F)cc(F)c3)cc2N1CCN1CCOCC1 [Compound 139] | -1.36 | -1.36 | – | –
CN(C)C(=O)c1ccc(CN2C(=O)COCc3cc(-c4ccc5c(c4)OCO5)ccc32)cc1 [Compound 192] | – | 10.5493 | 10.5493 | –
COc1ccc(-c2ccc3c(c2)N(Cc2ccccc2Cl)C(=O)COC3)cn1 [Compound 153] | 0.2455 | 0.2455 | – | –
O=C1COCc2cc(Br)ccc2N1CCN1CCOCC1 [Compound 91] | -2.221 | -2.221 | – | –
N#Cc1cccc(-c2ccc3c(c2)N(CCN2CCOCC2)C(=O)COC3)c1 [Compound 132] | -2.183 | -2.183 | – | –
COCCN1C(=O)COCc2ccc(-c3cccc(C(F)(F)F)c3)cc21 [Compound 108] | -0.2552 | -0.2552 | – | –
O=C1COCc2ccc(-c3cccnc3)cc2N1Cc1ccccc1Cl [Compound 107] | 2.19 | 2.19 | – | –
O=C1COCc2ccc(-c3cccc(O)c3)cc2N1CCc1ccccc1 [Compound 99] | -1.58 | -1.58 | – | –
O=C1COCc2cc(-c3cccnc3)ccc2N1Cc1ccccc1 [Compound 51] | -0.6528 | -0.6528 | – | –
COc1ccccc1-c1ccc2c(c1)COCC(=O)N2Cc1ccccc1Cl [Compound 150] | -1.328 | -1.328 | – | –

Compound | COMBINED_SCREEN_ACTIVITY [1] | PRIMARY_SCREEN_MINUS_LOG_FOLD_CHANGE_MOVEMENT (100 μM) | COMBINED_SCREEN_ACTIVITY (adult T. muris motility screen at 100 μM, combines primary and secondary screen minus log fold change in movement (mean where both are given)) | SECONDARY_SCREEN_MINUS_LOG_FOLD_CHANGE_MOVEMENT (100 μM)
COc1ccccc1-c1ccc2c(c1)COCC(=O)N2CCc1ccccc1 [Compound 119] | -0.8266 | -0.8266 | – | –
O=C1COCc2cc(Br)ccc2N1CC1CCCCC1 [Compound 64] | 3.118 | 3.494 | – | 2.742
COCCN1C(=O)COCc2cc(Br)ccc21 [Compound 30] | 0.3958 | 0.3958 | – | –
COc1cccc(CN2C(=O)COCc3ccc(Br)cc32)c1 [Compound 104] | -1.975 | -1.975 | – | –
COc1ccc(F)cc1-c1ccc2c(c1)N(CC1CC1)C(=O)COC2 [Compound 69] | 11.5841 | 10.5493 | – | 12.6188
COc1ccccc1-c1ccc2c(c1)COCC(=O)N2Cc1cc(F)cc(F)c1 [Compound 155] | -0.9332 | -0.9332 | – | –
COc1ccccc1-c1ccc2c(c1)COCC(=O)N2CCN1CCOCC1 [Compound 135] | -1.035 | -1.035 | – | –
O=C1COCc2ccc(-c3cccc(CO)c3)cc2N1CC1CC1 [Compound 41] | -1.108 | -1.108 | – | –
O=C1COCc2ccc(-c3ccccc3)cc2N1CC1CC1 [Compound 24] | 7.227 | 7.227 | – | –
Cc1ccccc1-c1ccc2c(c1)COCC(=O)N2CCN1CCOCC1 [Compound 111] | -0.2494 | -0.2494 | – | –
COCc1cccc(-c2ccc3c(c2)N(Cc2ccccc2)C(=O)COC3)c1 [Compound 118] | 10.5493 | 10.5493 | – | –
O=C1COCc2ccc(-c3cccc(F)c3)cc2N1CCN1CCOCC1 [Compound 116] | 0.5451 | 0.5451 | – | –
COCCN1C(=O)COCc2ccc(-c3cccc(O)c3)cc21 [Compound 37] | -1.788 | -1.788 | – | –
O=C1COCc2cc(-c3cccnc3)ccc2N1Cc1cc(F)cc(F)c1 [Compound 109] | 7.462 | 7.462 | – | –
COCCN1C(=O)COCc2ccc(-c3ccccc3OC)cc21 [Compound 45] | -1.409 | -1.409 | – | –
COCCN1C(=O)COCc2ccc(-c3ccccc3)cc21 [Compound 28] | -0.7597 | -1.727 | – | 0.2076
N#Cc1cccc(-c2ccc3c(c2)N(CC2CC2)C(=O)COC3)c1 [Compound 40] | -0.6738 | -0.6738 | – | –
O=C1COCc2cc(-c3cc(F)cc(Cl)c3)ccc2N1CCN1CCOCC1 [Compound 174] | -1.356 | -1.356 | – | –
Cc1ccc(CN2C(=O)COCc3cc(-c4cccc(O)c4)ccc32)cc1 [Compound 98] | -1.09 | -1.09 | – | –
COc1ccc(-c2ccc3c(c2)N(CCc2ccccc2)C(=O)COC3)cc1OC [Compound 171] | 7.742 | 7.742 | – | –
COCc1cccc(-c2ccc3c(c2)COCC(=O)N3Cc2cc(F)cc(F)c2)c1 [Compound 179] | 0.9799 | 0.9799 | – | –
CC(C)N1C(=O)COCc2cc(Br)ccc21 [Compound 17] | -0.6442 | -0.6442 | – | –
O=C1COCc2ccc(-c3ccc4ccccc4c3)cc2N1CCN1CCOCC1 [Compound 167] | 3.214 | 3.214 | – | –
CN1C(=O)COCc2c(-c3ccc4c(c3)OCO4)cccc21 [Compound 27] | -0.9234 | -0.9234 | – | –
Cc1ccccc1CN1C(=O)COCc2ccc(-c3cccnc3)cc21 [Compound 76] | -0.5388 | -0.5388 | – | –
CN1C(=O)COCc2c(-c3cc(F)cc(Cl)c3)cccc21 [Compound 34] | -1.392 | -1.392 | – | –
